In ChEMBL document CHEMBL3407464, “Novel 5-HT6 receptor antagonists/D2 receptor partial agonists targeting behavioral and psychological symptoms of dementia” (Eur J Med Chem, 2015):
Converted amounts (≈) assume the structure as drawn.

Columns and labels:
[1] = tested on: Rattus norvegicus; assay: Procognitive effect in intraperitoneally dosed 3-months old Wistar rat assessed as extinction of non-reinforced responding for sweet reward; assay type: functional; conditions: ip, read-out: MED
[2] = target: T1, 5-hydroxytryptamine receptor 7 (Homo sapiens, UniProt P34969); assay: biochemical
T1 sequence (P34969 whole entry): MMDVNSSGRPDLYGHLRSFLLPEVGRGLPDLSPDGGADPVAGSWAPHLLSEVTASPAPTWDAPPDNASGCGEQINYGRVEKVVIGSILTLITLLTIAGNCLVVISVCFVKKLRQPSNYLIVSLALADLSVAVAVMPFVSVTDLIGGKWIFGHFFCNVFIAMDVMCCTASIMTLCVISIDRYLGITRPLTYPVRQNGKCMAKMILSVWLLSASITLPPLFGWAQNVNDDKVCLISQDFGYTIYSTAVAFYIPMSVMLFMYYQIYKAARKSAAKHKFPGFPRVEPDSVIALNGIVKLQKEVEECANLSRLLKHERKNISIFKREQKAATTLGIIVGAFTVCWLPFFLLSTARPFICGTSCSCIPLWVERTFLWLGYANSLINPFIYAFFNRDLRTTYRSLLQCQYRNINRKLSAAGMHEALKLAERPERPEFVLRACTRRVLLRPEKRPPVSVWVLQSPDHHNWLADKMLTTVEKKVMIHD

[3] = Half life in human liver microsomes at 1 x 10^-7 M; assay type: ADME
[4] = tested on: Rattus norvegicus; assay: Anxiolytic activity in intraperitoneally dosed >18-months old Wistar rat by open-field test; assay type: functional; conditions: ip, read-out: MED
[5] = target: Alpha-2C adrenergic receptor (Homo sapiens, UniProt P18825); assay: biochemical
[6] = target: T2, 5-hydroxytryptamine receptor 6 (Homo sapiens, UniProt P50406); assay: Antagonist activity against human recombinant 5-HT6 receptor expressed in CHOK1 cells assessed as reduction in serotonin-induced increase in intracellular Ca2+ levels by aequorin based radiometric and luminescence plate counting method; assay type: functional, cell-based; conditions: CHO-K1
T2 sequence (P50406 whole entry): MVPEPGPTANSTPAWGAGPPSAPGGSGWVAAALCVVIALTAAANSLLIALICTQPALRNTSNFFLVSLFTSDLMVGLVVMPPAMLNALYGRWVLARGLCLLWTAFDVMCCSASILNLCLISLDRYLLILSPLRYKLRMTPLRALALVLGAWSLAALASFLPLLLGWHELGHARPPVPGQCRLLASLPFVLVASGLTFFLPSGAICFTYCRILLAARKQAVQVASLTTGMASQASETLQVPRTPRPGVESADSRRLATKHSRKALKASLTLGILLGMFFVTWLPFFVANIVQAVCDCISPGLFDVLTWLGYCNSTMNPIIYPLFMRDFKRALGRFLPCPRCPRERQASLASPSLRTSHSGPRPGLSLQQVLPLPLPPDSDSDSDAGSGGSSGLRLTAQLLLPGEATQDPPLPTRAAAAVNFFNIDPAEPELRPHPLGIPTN

[7] = target: T3, Sodium-dependent serotonin transporter (Homo sapiens, UniProt P31645); assay: biochemical
Target sequence in this assay (P31645 whole entry): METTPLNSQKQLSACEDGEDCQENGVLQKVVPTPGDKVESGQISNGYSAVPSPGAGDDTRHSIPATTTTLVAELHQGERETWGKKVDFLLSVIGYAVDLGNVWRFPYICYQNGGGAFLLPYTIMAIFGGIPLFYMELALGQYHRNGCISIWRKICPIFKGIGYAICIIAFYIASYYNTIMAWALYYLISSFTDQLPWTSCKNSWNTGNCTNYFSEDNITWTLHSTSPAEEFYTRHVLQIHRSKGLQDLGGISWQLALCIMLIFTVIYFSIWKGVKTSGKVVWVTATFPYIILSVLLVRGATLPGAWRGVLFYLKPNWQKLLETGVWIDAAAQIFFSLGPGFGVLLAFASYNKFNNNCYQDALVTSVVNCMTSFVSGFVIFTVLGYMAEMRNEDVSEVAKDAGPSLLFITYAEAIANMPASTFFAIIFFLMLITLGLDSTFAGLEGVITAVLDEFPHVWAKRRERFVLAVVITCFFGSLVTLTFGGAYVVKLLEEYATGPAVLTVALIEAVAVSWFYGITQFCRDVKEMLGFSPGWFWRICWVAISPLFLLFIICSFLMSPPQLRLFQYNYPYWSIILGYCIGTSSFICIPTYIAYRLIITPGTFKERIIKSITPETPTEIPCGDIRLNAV

[8] = target: T1, 5-hydroxytryptamine receptor 7; assay: Displacement of [3H]LSD from human 5-HT7 receptor expressed in CHO cells at 1 uM; assay type: cell-based
[9] = target: Alpha-2C adrenergic receptor (Homo sapiens) (UniProt P18825); assay: Displacement of [3H]RX-821002 from human adrenergic alpha2C receptor expressed in CHO cells at 1 uM; assay type: cell-based
[10] = target: T4, D(2) dopamine receptor (Homo sapiens, UniProt P14416); assay: Agonist activity at human recombinant dopmaine D2L receptor expressed in CHOK1 cells assessed as intracellular Ca2+ levels by aequorin based radiometric and luminescence plate counting method; assay type: functional, cell-based, CHO-K1
T4 sequence (P14416 whole entry): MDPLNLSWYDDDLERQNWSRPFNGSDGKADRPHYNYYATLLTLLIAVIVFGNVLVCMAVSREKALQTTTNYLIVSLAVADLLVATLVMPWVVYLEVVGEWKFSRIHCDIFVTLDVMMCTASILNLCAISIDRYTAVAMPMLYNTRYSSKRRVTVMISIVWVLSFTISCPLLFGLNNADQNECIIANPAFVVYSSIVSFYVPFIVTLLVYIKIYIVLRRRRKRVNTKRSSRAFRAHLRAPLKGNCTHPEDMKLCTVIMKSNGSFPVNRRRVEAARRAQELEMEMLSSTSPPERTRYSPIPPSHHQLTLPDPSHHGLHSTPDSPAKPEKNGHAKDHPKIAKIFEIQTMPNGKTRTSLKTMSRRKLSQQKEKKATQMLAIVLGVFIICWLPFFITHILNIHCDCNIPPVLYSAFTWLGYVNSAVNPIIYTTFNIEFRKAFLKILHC

[11] = target: T5, D(3) dopamine receptor (Homo sapiens, UniProt P35462); assay: Displacement of [3H]methylspiperone from human dopamine D3 receptor expressed in CHO cells; assay type: cell-based
T5 sequence (P35462 whole entry): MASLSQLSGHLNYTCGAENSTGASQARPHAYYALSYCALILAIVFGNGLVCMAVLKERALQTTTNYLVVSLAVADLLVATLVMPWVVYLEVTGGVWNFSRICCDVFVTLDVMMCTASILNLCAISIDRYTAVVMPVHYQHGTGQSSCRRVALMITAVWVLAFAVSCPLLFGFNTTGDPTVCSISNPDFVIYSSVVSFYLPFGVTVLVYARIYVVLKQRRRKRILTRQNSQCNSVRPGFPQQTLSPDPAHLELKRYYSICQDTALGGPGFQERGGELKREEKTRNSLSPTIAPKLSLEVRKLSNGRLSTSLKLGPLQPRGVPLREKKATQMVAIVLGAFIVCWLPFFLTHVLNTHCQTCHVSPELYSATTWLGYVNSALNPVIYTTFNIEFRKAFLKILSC

[12] = tested on: Rattus norvegicus; assay: Anti-depressant-like activity in intraperitoneally dosed 3-months old Wistar rat assessed as increase in saccharin self-administration; assay type: functional; conditions: ip, read-out: MED
[13] = target: 5-hydroxytryptamine receptor 2C (Homo sapiens, UniProt P28335); assay: biochemical
Chain of 5-hydroxytryptamine receptor 2C (P28335 whole entry): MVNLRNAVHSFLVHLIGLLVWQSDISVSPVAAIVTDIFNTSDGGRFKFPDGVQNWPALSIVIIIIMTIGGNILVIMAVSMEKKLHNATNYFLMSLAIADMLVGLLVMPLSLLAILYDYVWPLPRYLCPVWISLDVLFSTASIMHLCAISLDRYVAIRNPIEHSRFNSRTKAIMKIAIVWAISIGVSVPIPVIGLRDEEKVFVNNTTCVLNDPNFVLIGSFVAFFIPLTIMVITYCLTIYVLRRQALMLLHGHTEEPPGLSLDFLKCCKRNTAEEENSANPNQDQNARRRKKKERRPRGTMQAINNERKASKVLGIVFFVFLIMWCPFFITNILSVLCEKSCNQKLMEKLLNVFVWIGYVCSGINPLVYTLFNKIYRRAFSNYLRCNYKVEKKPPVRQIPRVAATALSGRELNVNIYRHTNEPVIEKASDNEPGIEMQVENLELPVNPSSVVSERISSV

[14] = target: T6, 5-hydroxytryptamine receptor 2A (Homo sapiens, UniProt P28223); conditions: HEK293, 1 uM
T6 sequence (P28223 whole entry): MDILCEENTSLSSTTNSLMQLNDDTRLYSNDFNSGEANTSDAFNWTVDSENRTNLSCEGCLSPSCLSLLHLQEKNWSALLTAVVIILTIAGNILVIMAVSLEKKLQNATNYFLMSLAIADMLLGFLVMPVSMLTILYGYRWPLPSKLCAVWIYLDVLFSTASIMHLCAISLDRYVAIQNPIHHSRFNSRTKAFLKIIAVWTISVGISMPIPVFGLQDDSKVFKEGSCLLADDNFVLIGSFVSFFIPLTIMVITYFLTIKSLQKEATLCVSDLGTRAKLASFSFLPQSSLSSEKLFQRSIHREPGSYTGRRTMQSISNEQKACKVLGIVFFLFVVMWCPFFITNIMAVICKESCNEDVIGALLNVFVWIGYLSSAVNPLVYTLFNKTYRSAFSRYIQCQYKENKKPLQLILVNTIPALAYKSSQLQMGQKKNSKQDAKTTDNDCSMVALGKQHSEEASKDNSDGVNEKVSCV

[15] = target: T4, D(2) dopamine receptor; assay: biochemical
[16] = Metabolic stability in human liver microsomes assessed as compound remaining after 60 mins at 1 x 10^-7 M (reference value: 100%); assay type: ADME; conditions: read-out: Stability
[17] = Permeability across apical to basolateral side in human Caco2 cells at 1 x 10^-5 M; assay type: ADME, cell-based; conditions: Caco-2, read-out: permeability
[18] = target: Alpha-1A adrenergic receptor (Homo sapiens, UniProt P35348); assay: biochemical
[19] = target: D(4) dopamine receptor (Homo sapiens) (UniProt P21917); assay: Displacement of [3H]methylspiperone from human dopamine D4 receptor expressed in CHO cells at 1 uM; assay type: cell-based
[20] = target: T5, D(3) dopamine receptor; assay: Agonist activity at human recombinant dopmaine D3 receptor expressed in CHOK1 cells assessed as effect on cAMP levels; assay type: functional, cell-based, CHO-K1
[21] = Permeability across basolateral to apical side in human Caco2 cells at 1 x 10^-5 M; assay type: ADME, cell-based; conditions: Caco-2, read-out: permeability
[22] = Protein binding in human plasma 1 x 10^-5 M; assay type: ADME, cell-free; conditions: read-out: PPB
[23] = Metabolic stability in human liver microsomes assessed as compound remaining after 15 mins at 1 x 10^-7 M (reference value: 100%); assay type: ADME; conditions: read-out: Stability
[24] = Aqueous solubility in simulated gastric fluid at 2 x 10^-4 M; assay type: physicochemical
[25] = target: 5-hydroxytryptamine receptor 1A (Homo sapiens, UniProt P08908); assay: biochemical
Chain of 5-hydroxytryptamine receptor 1A (P08908 whole entry): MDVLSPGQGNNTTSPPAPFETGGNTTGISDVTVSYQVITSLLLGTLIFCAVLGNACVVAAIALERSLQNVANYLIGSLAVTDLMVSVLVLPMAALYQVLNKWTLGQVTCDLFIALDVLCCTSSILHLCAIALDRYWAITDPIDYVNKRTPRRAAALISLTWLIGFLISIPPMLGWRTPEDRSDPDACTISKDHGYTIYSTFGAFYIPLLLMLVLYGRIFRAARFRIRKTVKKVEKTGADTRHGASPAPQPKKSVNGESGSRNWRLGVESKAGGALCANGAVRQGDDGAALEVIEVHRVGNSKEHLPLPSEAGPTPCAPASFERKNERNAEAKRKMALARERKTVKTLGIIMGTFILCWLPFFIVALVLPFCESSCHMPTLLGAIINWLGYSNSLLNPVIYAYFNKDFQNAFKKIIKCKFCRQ

[26] = target: D(1A) dopamine receptor (Homo sapiens, UniProt P21728); assay: biochemical
[27] = target: T6, 5-hydroxytryptamine receptor 2A; assay: Displacement of [3H]ketanserin from human 5-HT2A receptor expressed in HEK-293 cells; assay type: cell-based, HEK293
[28] = Metabolic stability in human liver microsomes assessed as compound remaining after 45 mins at 1 x 10^-7 M (reference value: 100%); assay type: ADME; conditions: read-out: Stability
[29] = target: T3, Sodium-dependent serotonin transporter; assay: Displacement of [3H]imipramine from human SERT expressed in CHO cells at 1 uM; assay type: cell-based
Target sequence in this assay (P31645 whole entry, looked up): as the sequence (P31645 whole entry) above

[30] = Intrinsic clearance in human liver microsomes at 1 x 10^-7 M; assay type: ADME; conditions: read-out: CLH
[31] = Aqueous solubility in PBS buffer at pH 7.4 at 2 x 10^-4 M; assay type: physicochemical
[32] = target: D(4) dopamine receptor (Homo sapiens, UniProt P21917); assay: Displacement of [3H]methylspiperone from human dopamine D4 receptor expressed in CHO cells; assay type: cell-based
[33] = tested on: Rattus norvegicus; assay: Anxiolytic activity in intraperitoneally dosed 3-months old Wistar rat by Vogel's conflict drinking test; assay type: functional; conditions: ip, read-out: MED
[34] = tested on: Rattus norvegicus; assay: Induction of reinforcement of lever pressing in intraperitoneally dosed Wistar rat in absence of sweet reward; assay type: organism-based; conditions: in vivo, ip
[35] = target: T5, D(3) dopamine receptor; conditions: CHO, 1 uM
[36] = target: Voltage-gated inwardly rectifying potassium channel KCNH2 (Homo sapiens, UniProt Q12809)
[37] = target: T7, Muscarinic acetylcholine receptor M1 (Homo sapiens) (UniProt P11229); assay: Displacement of [3H]pirenzepine from human muscarinic M1 receptor expressed in CHO cells at 1 uM; assay type: cell-based
T7 sequence (whole entry): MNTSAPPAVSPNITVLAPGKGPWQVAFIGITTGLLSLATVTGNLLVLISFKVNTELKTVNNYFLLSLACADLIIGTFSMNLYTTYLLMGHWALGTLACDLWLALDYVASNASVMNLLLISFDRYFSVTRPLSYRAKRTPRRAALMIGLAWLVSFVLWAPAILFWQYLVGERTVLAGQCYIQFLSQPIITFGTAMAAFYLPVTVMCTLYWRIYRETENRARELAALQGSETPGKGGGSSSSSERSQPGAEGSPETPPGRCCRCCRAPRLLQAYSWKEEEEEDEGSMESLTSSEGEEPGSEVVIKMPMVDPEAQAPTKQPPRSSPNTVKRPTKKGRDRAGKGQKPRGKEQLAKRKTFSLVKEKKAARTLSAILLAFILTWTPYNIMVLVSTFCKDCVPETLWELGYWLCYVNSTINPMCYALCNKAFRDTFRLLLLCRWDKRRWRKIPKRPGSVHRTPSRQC

[38] = target: T8, Histamine H1 receptor (Homo sapiens, UniProt P35367); assay: Displacement of [3H]pyrilamine from human histamine H1 receptor expressed in HEK-293 cells at 1 uM; assay type: cell-based; conditions: HEK293
T8 sequence (P35367 whole entry): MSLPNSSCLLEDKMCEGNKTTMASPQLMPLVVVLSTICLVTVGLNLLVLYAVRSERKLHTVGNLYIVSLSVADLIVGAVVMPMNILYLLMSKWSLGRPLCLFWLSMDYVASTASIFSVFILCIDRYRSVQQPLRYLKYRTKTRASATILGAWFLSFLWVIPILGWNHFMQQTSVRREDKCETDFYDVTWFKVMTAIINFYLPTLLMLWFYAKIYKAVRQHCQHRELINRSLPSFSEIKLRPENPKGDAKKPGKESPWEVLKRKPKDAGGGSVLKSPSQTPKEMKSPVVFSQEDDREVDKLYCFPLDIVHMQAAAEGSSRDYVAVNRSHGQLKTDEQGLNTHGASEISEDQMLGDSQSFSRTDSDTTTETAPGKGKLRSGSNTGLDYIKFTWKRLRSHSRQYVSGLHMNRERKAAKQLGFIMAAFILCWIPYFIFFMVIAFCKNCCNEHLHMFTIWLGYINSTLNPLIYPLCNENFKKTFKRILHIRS

[39] = Aqueous solubility in simulated intestinal fluid at 2 x 10^-4 M; assay type: physicochemical
[40] = tested on: Rattus norvegicus; assay: Anxiolytic activity in intraperitoneally dosed 3-months old Wistar rat by open-field test; assay type: functional; conditions: ip, read-out: MED
[41] = target: 5-hydroxytryptamine receptor 2C (Homo sapiens) (UniProt P28335); assay: Displacement of [3H]mesulergine from human 5-HT2C receptor expressed in HEK-293 cells at 1 uM; assay type: cell-based; conditions: HEK293
Chain of 5-hydroxytryptamine receptor 2C (Homo sapiens) (P28335 whole entry): as the sequence (P28335 whole entry) above

[42] = Metabolic stability in human liver microsomes assessed as compound remaining after 30 mins at 1 x 10^-7 M (reference value: 100%); assay type: ADME; conditions: read-out: Stability
[43] = target: T2, 5-hydroxytryptamine receptor 6; assay: biochemical
[44] = target: 5-hydroxytryptamine receptor 1A (Homo sapiens) (UniProt P08908); conditions: HEK293, 1 uM
Chain of 5-hydroxytryptamine receptor 1A (Homo sapiens) (P08908 whole entry): as the sequence (P08908 whole entry) above

[45] = tested on: Rattus norvegicus; assay: Anti-depressant-like activity in intraperitoneally dosed 3-months old Wistar rat by Porsolt's forced swim test; assay type: functional; conditions: ip, read-out: MED
[46] = tested on: Rattus norvegicus; assay: Anti-depressant-like activity in intraperitoneally dosed >18-months old Wistar rat by Porsolt's forced swim test; assay type: functional; conditions: ip, read-out: MED
[47] = target: T8, Histamine H1 receptor; assay: biochemical; assay type: cell-based, HEK293
[48] = target: Muscarinic acetylcholine receptor M1 (Homo sapiens, UniProt P11229); assay: biochemical; assay type: cell-based, CHO
[49] = target: Alpha-1A adrenergic receptor (Homo sapiens) (UniProt P35348); conditions: CHO, 1 uM
[50] = target: T4, D(2) dopamine receptor; assay: biochemical; remark: listed apart in the source

## NC(=O)c1ccccc1OCCCN1CCN(c2cccc3c2ccn3S(=O)(=O)c2ccccc2)CC1
[1]
  minimal effective dose: 3 mg/kg
[2]
  Ki: 180 nM
[3]
  half-life at 0.1 µM: > 1 h
[4]
  minimal effective dose: 3 mg/kg
[5]
  Ki: 190 nM
[6]
  Kb: 1.8 nM
[7]
  Ki: > 1000 nM
[8]
  inhibition: > 50%
[9]
  inhibition: > 50%
[10]
  EC50: 54 nM
[11]
  Ki: 0.1 nM
[12]
  minimal effective dose: 1 mg/kg
[13]
  Ki: > 1000 nM
[14]
  inhibition: > 90%
[15]
  Ki: 6.3 nM
[16]
  remaining at 1 h, 0.1 µM: 57.9%
[17]
  Papp A→B at 10 µM: 0.7 ×10⁻⁶ cm/s
[18]
  Ki: 16.9 nM
[19]
  inhibition: > 90%
[20]
  EC50: > 1000 nM
[21]
  Papp B→A at 10 µM: 0.3 ×10⁻⁶ cm/s
[22]
  fraction unbound at 10 µM: < 0.01
[23]
  remaining at 0.25 h, 0.1 µM: 90.6%
[24]
  solubility at 200 µM: 200 µM (≈ 104 µg/mL)
[25]
  Ki: 6.7 nM
[26]
  Ki: > 1000 nM
[27]
  Ki: 29 nM
[28]
  remaining at 0.75 h, 0.1 µM: 68%
[29]
  inhibition: < 40%
[30]
  microsomal CLint at 0.1 µM: < 116 µL/min/mg
[31]
  solubility at 200 µM: 7 µM (≈ 3.63 µg/mL)
[32]
  Ki: 7.1 nM
[33]
  minimal effective dose: 1 mg/kg
[34]
  Activity: Non-toxic
[35]
  inhibition: > 90%
[36]
  IC50: 6200 nM
[37]
  inhibition: < 40%
[38]
  inhibition: > 50%
[39]
  solubility at 200 µM: 97.3 µM (≈ 50.5 µg/mL)
[40]
  minimal effective dose: 1 mg/kg
[41]
  inhibition: < 40%
[42]
  remaining at 0.5 h, 0.1 µM: 79.3%
[43]
  Ki: 1 nM
[44]
  inhibition: > 90%
[45]
  minimal effective dose: 1 mg/kg
[46]
  minimal effective dose: 1 mg/kg
[47]
  Ki: 160 nM
[48]
  Ki: > 1000 nM
[49]
  inhibition: > 50%
[50]
  Ki: 6.3 nM
